System: E2F tumour cell line (E2F4 tumour cells)
Type: cell-based
Details: 24 hours; 33 μM peptide, 33 μM etoposide
Protocol: After 24 hours random regions of the culture dish were examined and the percentage of nonviable cells determined by counting cells with an abnormal morphology.
At 24 hours post treatment cellular morphology was noted and those with a rounded abnormal appearance were scored as dead.
Cells were cultured as above.

In the case of `COc1cc([C@@H]2c3cc4c(cc3[C@@H](O[C@@H]3O[C@@H]5CO[C@@H](C)O[C@H]5[C@H](O)[C@H]3O)[C@H]3COC(=O)[C@H]23)OCO4)cc(OC)c1O` [etoposide], the “cell death (cells with rounded abnormal appearance scored as dead)” value is reported as “approximately 15%”.

Source: patent US7160981B2, “Peptide antagonists of DP transcription factors” (Prolifix Limited, priority 1996, dated 2007)
